According to patent publication US20260356834A1, “ANTICONVULSIVE COMPOUNDS AND USES THEREOF” (Jazz Pharmaceuticals Research UK Limite, priority 2023, published 2026):
“And” between values parts separate entries of the source, which are not always exact repeats. Equal values may be shown once. Read-outs that look alike come from different tables or passages of the source. Marks after values point to notes of the source that are not given here.

What was measured:
C57BL/6J mice [1] = experiment: mouse maximal electroshock seizure threshold model using minimal sample sizes (mini-MEST); details: 30 min post dose
Procedure: An increase in seizure threshold is indicative of an anticonvulsive effect.
The ability of a test compound to alter the stimulus intensity, expressed as current (mA), required to induce the presence of tonic hind limb extensor convulsions, is assessed in the MEST.
In the mini-MEST test, a lower n number is used.
Male C57BL/6J mice were housed in groups of 6. Mice were kept under standard conditions (12 hour light cycle; light intensity of 25-75 lux) and fed a diet of certified rodent CR 14% protein rodent diet (LabDiet® 4CR4). Mice were 8-9 weeks old at the start of the study.
Naïve mice were acclimatised to the procedure room in their home cages for up to 7 days, with food and water available ad libitum.
All animals were weighed at the beginning of the study and randomly assigned to treatment groups based on a mean distribution of body weight across groups.
The first animal within a treatment group was given a shock at the expected or estimated CC50 current. For subsequent animals, the current was lowered or raised depending on the convulsions outcome from the preceding animal in log scale intervals.
Data generated from each treatment group were used to calculate the CC50±SEM values for the treatment group.
Vehicle: (5% ethanol, 10% Solutol® (Kolliphor® HS 15), 85% saline). 1 mL of ethanol, 2 mL of Solutol™ were warmed to 60 °C, in 17 mL of 0.9% saline.
Test compounds: 5-50 mg/kg in a 1:2:17 ethanol:Solutol®:saline formulation (as used for vehicle).
RjOrl: Swiss mice = experiment: mouse 6 Hz (44 mA) model of partial seizures; type: in vivo; details: for Mean Forelimb Clonus +/− SEM: score 0-2; for Change from vehicle (forelimb clonus): vs vehicle (HPMC)
Text: The 6 Hz (44 mA) model of partial seizures, which detects anticonvulsant activity, follows that described by Brown et al. 1953.
[…] A decrease in forelimb clonus score is indicative of protection from seizure and an anticonvulsive effect.
When conducted at a 44 mA stimulus intensity in mice, the 6 Hz test can differentiate compounds with potential for the treatment of focal-onset seizures that are often resistant to current anti-epileptic drugs.
Male RjOrl: Swiss mice (Janvier Labs, 53940 Le Genest-Saint-Isle, France), 5 weeks old, weighing 27-38 g at the beginning of the experiment. Animals were acclimatized to the Test Facility for at least 5 days after delivery and randomly housed in groups of 5 to 8 in macrolon cages on wood litter with free access to food and water.
The animal house was maintained under artificial lighting (12 hours) between 7:00 and 19:00 in a controlled ambient temperature of 22±2 °C and relative humidity between 30-70%.
Before transcorneal stimulation, a drop of tetracaine solution (1%) was applied on each eye of the mouse for local anesthesia. Between 1-10 minutes later and at the designated pre-treatment (see below), the mice were administered a rectangular current (44 mA, rectangular pulse: 0.2 ms pulse width, 3 s duration, (6 Hz) via corneal electrodes connected to a constant current shock generator (Ugo Basile: type 7801).
The results for the number of seizures as reflected by forelimb clonus were recorded immediately after current administration. Forelimb clonus was scored as absent (0=no forelimb clonus), mild (1=clonus with one forelimb) and strong (2=clonus with both forelimbs). The experimenters were blinded to the treatment. […]
The administration volume was 10 mL/kg.
Due to the number of animals tested, the experiment was divided in 2 sub-experiments on 2 consecutive days with equivalent numbers of mice per group and per sub-experiment.
Data were discrete values so considered to be non-normally distributed based on validation data, therefore non-parametric tests were utilized. Quantitative data (scores) with the test substance were analyzed by comparing test compound-treated groups with the 1:2:17 vehicle control using Kruskal-Wallis test with Dunn's multiple comparisons test when the Kruskal-Wallis test was significant. Quantitative data with the reference substance were analyzed using Mann-Whitney U test as compared to saline vehicle.

C57BL/6J mice [2] = experiment: mouse maximal electroshock seizure threshold model (MEST); type: in vivo; details: for CC50 +/− SEM: HPMC vehicle
Procedure: Vehicle=1:2:17 ethanol:Solutol® (Kolliphor® HS 15):saline: 1 mL of ethanol and 2 mL of solutol were warmed to 60 °C and 17 mL of 0.9% saline was added slowly. […]
Vehicle=0.5% HPMC and 0.1% Tween 80:0.5% HPMC and 0.1% Tween 80 in water.

DBA/2 mice = details: De Sarro et al., 2017; cited from earlier work
C57BL/6J mice [3] = details: cited from earlier work
C57BL/6J mice [4] = details: cited from earlier work; remark: listed apart in the source

| Molecule | CC50 +/− SEM (C57BL/6J mice [1]; 30 mg/kg i.p.) [mA] | Change from vehicle (CC50) (C57BL/6J mice [1]; 30 mg/kg i.p.) [%] | further results |
| --- | --- | --- | --- |
| CCCc1cc(O)c(-c2cccn3ccnc23)c(O)c1 [Compound 1, 2-(imidazo[1,2-a]pyridin-8-yl)-5-propylbenzene-1,3-diol] | 92.9 ± 1.1 | 200 | – |
| Cc1ccn2ccnc2c1-c1c(O)cccc1O [Compound 14, 2-(7-Methylimidazo[1,2-a]pyridin-8-yl)benzene-1,3-diol] | <33.0 | <52 | – |
| Cc1c(F)cn2ccnc2c1-c1c(O)cc(CCC(F)(F)F)cc1O [Compound 24, 2-(6-Fluoro-7-methylimidazo[1,2-a]pyridin-8-yl)-5-(3,3,3-trifluoropropyl)benzene-1,3-diol] | – | – | CC50 +/− SEM (C57BL/6J mice [1]; 25 mg/kg p.o.): 92.9 ± 1.1 mA; Change from vehicle (CC50) (C57BL/6J mice [1]; 25 mg/kg p.o.): 272%; CC50 +/− SEM (C57BL/6J mice [1]; 50 mg/kg p.o.): >131.0 mA; Change from vehicle (CC50) (C57BL/6J mice [1]; 50 mg/kg p.o.): >424% |
| CCCc1cc(O)c(-c2c(C)ccn3c(Cl)cnc23)c(O)c1 [Compound 10, 2-(3-Chloro-7-methylimidazo[1,2-a]pyridin-8-yl)-5-propylbenzene-1,3-diol] | <33.0 ± 0.0 | <29 | – |
| CCCc1cc(O)c(-c2c(C)c(F)cn3ccnc23)c(O)c1 [Compound 11, 2-(6-Fluoro-7-methylimidazo[1,2-a]pyridin-8-yl)-5-propylbenzene-1,3-diol] | – | – | Mean Forelimb Clonus +/− SEM (RjOrl: Swiss mice; 25 mg/kg p.o., 15 min): 0.85 ± 0.13; Change from vehicle (forelimb clonus) (RjOrl: Swiss mice; 25 mg/kg p.o., 15 min): −15%; Mean Forelimb Clonus +/− SEM (RjOrl: Swiss mice; 50 mg/kg p.o., 30 min): 0.55 ± 0.11; Change from vehicle (forelimb clonus) (RjOrl: Swiss mice; 50 mg/kg p.o., 30 min): −45%; Mean Forelimb Clonus +/− SEM (RjOrl: Swiss mice; 100 mg/kg p.o., 30 min): 0.80 ± 0.14; Change from vehicle (forelimb clonus) (RjOrl: Swiss mice; 100 mg/kg p.o., 30 min): −20%; Mean Forelimb Clonus +/− SEM (RjOrl: Swiss mice; 200 mg/kg p.o., 60 min): 0.75 ± 0.12; Change from vehicle (forelimb clonus) (RjOrl: Swiss mice; 200 mg/kg p.o., 60 min): −25%; CC50 +/− SEM (C57BL/6J mice [2]; 5 mg/kg p.o., 15 min): 25.8 ± 1.9 mA; Change from vehicle (CC50) (C57BL/6J mice [2]; 5 mg/kg p.o., 15 min, vs HPMC vehicle): −3%; CC50 +/− SEM (C57BL/6J mice [2]; 25 mg/kg p.o., 15 min): 37.5 ± 2.2 mA; Change from vehicle (CC50) (C57BL/6J mice [2]; 25 mg/kg p.o., 15 min, vs HPMC vehicle): 42%***; CC50 +/− SEM (C57BL/6J mice [2]; 50 mg/kg p.o., 30 min): 100.8 ± 3.9 mA; Change from vehicle (CC50) (C57BL/6J mice [2]; 50 mg/kg p.o., 30 min, vs HPMC vehicle): 281%***; CC50 +/− SEM (C57BL/6J mice [2]; 100 mg/kg p.o., 30 min): 250.0 ± 3.7 mA; Change from vehicle (CC50) (C57BL/6J mice [2]; 100 mg/kg p.o., 30 min, vs HPMC vehicle): 843%*** |
| CCCc1cc(O)c(-c2c(Cl)ccn3ccnc23)c(O)c1 [Compound 6, 2-(7-Chloroimidazo[1,2-a]pyridin-8-yl)-5-propylbenzene-1,3-diol] | 49.9 ± 1.9 | 70 | – |
| Cc1c(Cl)cn2ccnc2c1-c1c(O)cc(Cl)cc1O [Compound 19, 5-Chloro-2-(6-chloro-7-methylimidazo[1,2-a]pyridin-8-yl)benzene-1,3-diol] | – | – | CC50 +/− SEM (C57BL/6J mice [1]; 50 mg/kg p.o.): 57.3 ± 1.9 mA; Change from vehicle (CC50) (C57BL/6J mice [1]; 50 mg/kg p.o.): 86% |
| CCCCCc1cc(O)c(-c2c(C)c(Cl)cn3ccnc23)c(O)c1 [Compound 17, 2-(6-Chloro-7-methylimidazo[1,2-a]pyridin-8-yl)-5-pentylbenzene-1,3-diol] | 80.9 ± 10.8 | 231 | – |
| CCCCCc1cc(O)c(-c2c(C)ccn3ccnc23)c(O)c1 [Compound 13, 2-(7-Methylimidazo[1,2-a]pyridin-8-yl)-5-pentylbenzene-1,3-diol] | 92.9 ± 1.1 | 263 | – |
| CCCc1cc(O)c(-c2c(C)ccn3c(C)cnc23)c(O)c1 [Compound 9, 2-(3,7-Dimethylimidazo[1,2-a]pyridin-8-yl)-5-propylbenzene-1,3-diol] | 58.6 ± 1.6 | 152 | – |
| CCC(C)(C)c1cc(O)c(-c2c(C)c(Cl)cn3ccnc23)c(O)c1 [Compound 20, 2-(6-Chloro-7-methylimidazo[1,2-a]pyridin-8-yl)-5-(tert-pentyl)benzene-1,3-diol] | 40.6 ± 1.1 | 59 | – |
| CCCc1cc(O)c(-c2c(C(F)(F)F)ccn3ccnc23)c(O)c1 [Compound 5, 2-(7-trifluoromethylimidazo[1,2-a]pyridin-8-yl)-5-propylbenzene-1,3-diol] | <33.0 | <12 | – |
| CCCc1cc(O)c(-c2c(C)c(C(F)(F)F)cn3ccnc23)c(O)c1 [Compound 16, 2-(6-Trifluoromethyl-7-methylimidazo[1,2-a]pyridin-8-yl)-5-propylbenzene-1,3-diol] | <33.0 | <35 | – |
| CCC(C)(C)c1cc(O)c(-c2c(C)ccn3ccnc23)c(O)c1 [Compound 21, 2-(7-Methylimidazo[1,2-a]pyridin-8-yl)-5-(tert-pentyl)benzene-1,3-diol] | <33.0 | – | – |
| CCCc1cc(O)c(-c2c(F)ccn3ccnc23)c(O)c1 [Compound 8, 2-(7-Fluoroimidazo[1,2-a]pyridin-8-yl)-5-propylbenzene-1,3-diol] | 65.8 ± 1.9 | 145 | – |
| CCCc1cc(O)c(-c2c(C)ccn3cc(Cl)nc23)c(O)c1 [Compound 12, 2-(2-Chloro-7-methylimidazo[1,2-a]pyridin-8-yl)-5-propylbenzene-1,3-diol] | 57.3 ± 1.9 | 145 | – |
| CCCc1cc(O)c(-c2c(C3CC3)ccn3ccnc23)c(O)c1 [Compound 18, 2-(7-Cyclopropylimidazo[1,2-a]pyridin-8-yl)-5-propylbenzene-1,3-diol] | 80.9 ± 1.1 | 216 | CC50 +/− SEM (C57BL/6J mice [1]; 50 mg/kg p.o.): 49.9 ± 1.9 mA; Change from vehicle (CC50) (C57BL/6J mice [1]; 50 mg/kg p.o.): 86% |
| CCCc1cc(O)c(-c2c(C)c(C3CC3)cn3ccnc23)c(O)c1 [Compound 23, 2-(6-Cyclopropyl-7-methylimidazo[1,2-a]pyridin-8-yl)-5-propylbenzene-1,3-diol] | <33.0 | <52 | – |
| NC(=O)N1c2ccccc2C=Cc2ccccc21 [carbamazepine] | – | – | protection from clonic convulsions, tonic convulsions and respiratory arrest (DBA/2 mice): protect DBA/2 mice from clonic convulsions, tonic convulsions and respiratory arrest |
| CCCc1cc(O)c(-c2c(C)c(C)cn3ccnc23)c(O)c1 [Compound 7, 2-(6,7-Dimethylimidazo[1,2-a]pyridin-8-yl)-5-propylbenzene-1,3-diol] | 53.5 ± 1.1 | 100 | – |
| Cc1ccn2ccnc2c1-c1c(O)cc(C2CCCC2)cc1O [Compound 22, 5-Cyclopentyl-2-(7-methylimidazo[1,2-a]pyridin-8-yl)benzene-1,3-diol] | 57.3 ± 1.9 | 124 | – |
| CCCc1cc(O)c(-c2c(C)ccn3cc(C)nc23)c(O)c1 [Compound 3, 2-(2,7-Dimethylimidazo[1,2-a]pyridin-8-yl)-5-propylbenzene-1,3-diol] | 35.3 ± 1.1 | 32 | – |
| CCCc1cc(O)c(-c2c(C)ccn3cc(C(F)(F)F)nc23)c(O)c1 [Compound 15, 2-(2-Trifluoromethyl-7-methylimidazo[1,2-a]pyridin-8-yl)-5-propylbenzene-1,3-diol] | 35.3 ± 1.1 | 62 | – |
| CN1C(=O)CN=C(c2ccccc2)c2cc(Cl)ccc21 [Diazepam, diazepam, reference compound] | – | – | Change from vehicle (CC50) (C57BL/6J mice [2]; 2.5 mg/kg i.p., 30 min, vs 1:1:18 ethanol:Kolliphor EL:saline vehicle): 406%^###; Change from vehicle (CC50) (C57BL/6J mice [2]; 2.5 mg/kg i.p., 30 min, vs 1:2:17 ethanol:Solutol:saline vehicle): 439%^###; Change from vehicle (CC50) (C57BL/6J mice [2]; 2.5 mg/kg i.p., 30 min, vs HPMC vehicle): 652%*** and 526%***; anticonvulsive properties in the MEST test (C57BL/6J mice [3]; mouse, in vivo): exhibit anticonvulsive properties; anticonvulsive properties in the MEST test (C57BL/6J mice [4]; mouse, in vivo): exhibit anticonvulsive properties |
| picrotoxin | – | – | seizure threshold (C57BL/6J mice [3]; known convulsive agent): a reduction in seizure threshold; seizure threshold (C57BL/6J mice [4]; known convulsive agent): a reduction in seizure threshold |
